According to the supplement of paper PMC10307832:

Key:
Experiment in all cases: relative viability (nuclei count vs DMSO), 5 days (fraction); higher = more cells survive
Selisistat + Trametinib = compound: C1CC(C2=C(C1)C3=C(N2)C=CC(=C3)Cl)C(=O)N [Selisistat] + CC(=O)Nc1cccc(-n2c(=O)n(C3CC3)c(=O)c3c(Nc4ccc(I)cc4F)n(C)c(=O)c(C)c32)c1 [Trametinib] (partner 0.02 µM)
Method in brief: (§1)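 For relative viability, nuclei counts in treated wells were divided by those in vehicle wells. Lung cancer cell lines had been pin-tool dosed in 1536-well plates the day after seeding and cultured for 5 days, then fixed and stained in one step (final 0.05% Triton X-100, 1% formaldehyde, 1 ug/ml Hoechst) and imaged at 4×. Doses were one drug alone or a fixed anchor-drug dose plus five library-drug doses (not always all listed) in √10 steps, and values are duplicate-plate medians.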

Selisistat + Luminespib = compound: C1CC(C2=C(C1)C3=C(N2)C=CC(=C3)Cl)C(=O)N [Selisistat] + CCNC(=O)c1noc(-c2cc(C(C)C)c(O)cc2O)c1-c1ccc(CN2CCOCC2)cc1 [Luminespib] (partner 0.01 µM)
Method in brief: as §1

Serdemetan + Pictilisib = compound: c1ccc2c(CCNc3ccc(Nc4ccncc4)cc3)c[nH]c2c1 [Serdemetan] + CS(=O)(=O)N1CCN(Cc2cc3nc(-c4cccc5[nH]ncc45)nc(N4CCOCC4)c3s2)CC1 [Pictilisib] (partner 1 µM)
Method in brief: as §1

Serdemetan + Olaparib = compound: c1ccc2c(CCNc3ccc(Nc4ccncc4)cc3)c[nH]c2c1 [Serdemetan] + O=C(c1cc(Cc2n[nH]c(=O)c3ccccc23)ccc1F)N1CCN(C(=O)C2CC2)CC1 [Olaparib] (partner 8 µM)
Method in brief: as §1

Cell Line	relative viability (Selisistat + Trametinib; first compound 0.4 µM)	relative viability (Selisistat + Trametinib; first compound 1.265 µM)	relative viability (Selisistat + Trametinib; first compound 4 µM)	relative viability (Selisistat + Trametinib; first compound 12.65 µM)	relative viability (Selisistat + Trametinib; first compound 40 µM)	relative viability (Selisistat + Luminespib; first compound 0.4 µM)	relative viability (Selisistat + Luminespib; first compound 1.265 µM)	relative viability (Selisistat + Luminespib; first compound 12.65 µM)	relative viability (Selisistat + Luminespib; first compound 40 µM)	relative viability (Serdemetan + Pictilisib; first compound 0.04 µM)	relative viability (Serdemetan + Pictilisib; first compound 0.1265 µM)	relative viability (Serdemetan + Pictilisib; first compound 0.4 µM)	relative viability (Serdemetan + Pictilisib; first compound 1.265 µM)	relative viability (Serdemetan + Pictilisib; first compound 4 µM)	relative viability (Serdemetan + Olaparib; first compound 0.04 µM)	relative viability (Serdemetan + Olaparib; first compound 0.1265 µM)	relative viability (Serdemetan + Olaparib; first compound 0.4 µM)	relative viability (Serdemetan + Olaparib; first compound 1.265 µM)	relative viability (Serdemetan + Olaparib; first compound 4 µM)	relative viability (Selisistat + Luminespib; first compound 4 µM)
NCI-H358	0.146	0.16	0.122	0.129	0.122	0.435	0.341	0.469	0.471	0.364	0.368	0.332	0.281	0.317	0.582	0.507	0.626	0.595	0.464	
NCI-H441	0.455	0.432	0.363	0.398	0.452	0.294	0.382	0.339	0.344	0.486	0.481	0.418	0.277	0.384	0.513	0.422	0.5	0.3	0.281	0.349
NCI-H460	0.129	0.128	0.0976	0.117	0.142	0.0268	0.0346	0.0377	0.0409	0.339	0.366	0.27	0.287	0.253	0.342	0.344	0.349	0.182	0.148	0.0301
NCI-H520	0.545	0.599	0.651	0.681	0.637	0.233	0.255	0.233	0.206	0.283	0.327	0.321	0.269	0.272	0.335	0.347	0.27	0.199	0.26	0.232
NCI-H596	0.864	0.843	0.831	0.733	0.813	0.981	0.938	0.668	0.775	0.41	0.411	0.346	0.332	0.339	0.694	0.657	0.517	0.532	0.475	1.08
NCI-H647	0.467	0.457	0.449	0.472	0.474	0.119	0.205	0.111	0.15	0.359	0.313	0.499	0.392	0.445	0.51	0.495	0.534	0.27	0.165	0.146
NCI-H650	0.978	1.01	0.967	0.909	1.01	0.874	0.772	0.77	0.665	0.743	0.778	0.977	0.793	0.746	0.379	0.362	0.365	0.271	0.285	0.894
NCI-H661	0.522	0.541	0.442	0.502	0.45	0.977	0.966	0.833	0.732	0.589	0.356	0.383	0.342	0.361	0.711	0.648	0.634	0.549	0.558	0.928
NCI-H727	0.467	0.38	0.409	0.427	0.44	0.389	0.231	0.268	0.349	0.327	0.421	0.412	0.346	0.299	0.598	0.725	0.679	0.484	0.726	
NCI-H838	0.592	0.482	0.511	0.516	0.507	0.313	0.332	0.392	0.311	0.395	0.508	0.507	0.438	0.549	0.739	0.759	0.671	0.669	0.874	0.349
NCI-H1355	0.422	0.462	0.422	0.438	0.43	0.739	0.834	0.683	0.774	0.456	0.491	0.405	0.445	0.435	0.672	0.709	0.648	0.471	0.566	0.596
NCI-H1395	1.13	0.939		0.979	0.917	0.871	0.682	0.66	0.455	0.574	0.619	0.676	0.485	0.475	0.445	0.442	0.443	0.478	0.399	0.702
NCI-H1437	0.558	0.485	0.488	0.5	0.477	1.1	1.12	1.1	0.922	0.469	0.409	0.454	0.492	0.342	0.661	0.612	0.62	0.677	0.537	1.09
NCI-H1650	0.564	0.572	0.531	0.577	0.465	0.17	0.192	0.202	0.191	0.57	0.585	0.475	0.41	0.441	0.692	0.781	0.802	0.671	0.419	0.178
NCI-H1651	0.855	0.871	0.799	0.842	0.817	1.06	0.827	0.848	0.802	0.434	0.496	0.433	0.456	0.23	0.179	0.165	0.159	0.131	0.141	0.836
NCI-H1666	0.839	0.833	0.987	0.839	0.83	1.05	1	0.995	0.878	0.412	0.413	0.525	0.531	0.465	0.735	0.701	0.668		0.678	0.969
NCI-H1734	0.714	0.674	0.656	0.694	0.718	0.173	0.194	0.208	0.216	0.466		0.354	0.163	0.242	0.327	0.183	0.171	0.114	0.149	0.223

Cell Line	relative viability (Selisistat + Trametinib; first compound 0.4 µM)	relative viability (Selisistat + Trametinib; first compound 1.265 µM)	relative viability (Selisistat + Trametinib; first compound 4 µM)	relative viability (Selisistat + Trametinib; first compound 12.65 µM)	relative viability (Selisistat + Trametinib; first compound 40 µM)	relative viability (Selisistat + Luminespib; first compound 0.4 µM)	relative viability (Selisistat + Luminespib; first compound 1.265 µM)	relative viability (Selisistat + Luminespib; first compound 12.65 µM)	relative viability (Selisistat + Luminespib; first compound 40 µM)	relative viability (Serdemetan + Pictilisib; first compound 0.04 µM)	relative viability (Serdemetan + Pictilisib; first compound 0.1265 µM)	relative viability (Serdemetan + Pictilisib; first compound 0.4 µM)	relative viability (Serdemetan + Pictilisib; first compound 1.265 µM)	relative viability (Serdemetan + Pictilisib; first compound 4 µM)	relative viability (Serdemetan + Olaparib; first compound 0.04 µM)	relative viability (Serdemetan + Olaparib; first compound 0.1265 µM)	relative viability (Serdemetan + Olaparib; first compound 0.4 µM)	relative viability (Serdemetan + Olaparib; first compound 1.265 µM)	relative viability (Serdemetan + Olaparib; first compound 4 µM)	relative viability (Selisistat + Luminespib; first compound 4 µM)
NCI-H1755	0.83	0.883	0.783	0.764	0.841	0.415	0.315	0.31	0.377	0.428	0.458	0.455	0.307	0.296	0.867	0.769	0.648	0.493	0.448	0.619
NCI-H1792	0.493	0.38		0.44	0.44	0.406	0.52	0.536	0.399	0.278	0.274	0.283	0.242	0.145	0.405	0.336	0.231	0.0956	0.116	
NCI-H1793	0.38	0.431		0.438	0.381	0.185	0.166	0.217	0.234	0.302	0.415	0.31	0.163	0.199	0.814	0.73	0.547	0.316	0.285	
NCI-H1915	0.348	0.307	0.318	0.297	0.342	0.839	0.775	0.695	0.75	0.966	1.01	0.921	0.811	0.985	0.238	0.242	0.223	0.208	0.24	0.775
NCI-H1944	0.437	0.383	0.455	0.44	0.446	0.743	0.58	0.653	0.615	0.354	0.383	0.34		0.338	0.385	0.393	0.286	0.228	0.288	
NCI-H1975	0.371	0.358	0.262	0.329	0.33	0.147	0.301	0.131	0.337	0.302	0.355	0.317	0.338	0.31	0.843	0.754	0.742	0.748	0.75	0.168
NCI-H1993	0.519	0.496		0.518	0.573	0.868	0.685	1.06	0.846	0.815	0.884	0.809		0.761	0.982	0.969	1.18	1.01	0.778	0.831
NCI-H2009	0.285	0.278	0.287	0.259	0.282	1.07	1.05	0.944	0.944	0.793	0.822	0.887	0.424	0.662	0.777	0.687	0.688	0.496	0.497	
NCI-H2023	0.608	0.473	0.607	0.47	0.573	0.664	0.633	0.628	0.732	0.219	0.28	0.19	0.182	0.189	0.512	0.459	0.323	0.152	0.203	0.648
NCI-H2085	0.518	0.61	0.581	0.554	0.761	0.569	0.406	0.452	0.4	0.486	0.516	0.483	0.357	0.438	0.818	0.676	0.597	0.44	0.393	0.47
NCI-H2087	0.194	0.164		0.22	0.202	0.157	0.139	0.147	0.158	0.961	0.966	0.814	0.493	0.422	0.481	0.473	0.433	0.207	0.217	
NCI-H2126	0.557	0.57	0.565	0.555	0.605	0.929	0.972	0.947	0.965	0.552	0.473	0.428	0.521	0.542	0.885	0.914	0.855	0.724	0.751	0.872
NCI-H2170	1.07	0.939	0.85	0.919	0.973	0.653	0.726	0.843	0.696	0.365	0.34	0.311	0.28	0.349	0.641	0.571	0.544	0.469	0.352	0.76
NCI-H2228	0.666	0.362	0.564	0.537	0.372	0.153	0.101	0.145	0.13	0.322	0.26	0.327	0.257	0.214	0.493	0.458	0.358	0.301	0.264	0.152
NCI-H2347	0.266	0.245		0.298	0.285	0.322	0.406	0.283	1.01	0.718	0.517	0.71	0.69	0.464	0.568	0.535	0.59	0.424	0.439	0.186
NCI-H2405	0.676	0.602		0.601	0.682	0.745	0.691	0.659	0.766	0.457	0.403	0.491	0.42	0.41	0.809	0.829	0.86	0.795	0.779	0.556
